From US6015809A (priority 1999, dated 2000)
≈ marks a conversion by molar mass, not a printed value. Read-outs that look alike come from different tables or passages of the source.

Key:
Assay in all cases: Antifungal activity, MIC microdilution
Format in all cases: cell-based
[1] = test system: Aspergillus fumigatus; conditions: strain ATCC 26933, RPMI 1640, 35° C., 24-48 hours
Procedure: (§1) Antifungal activity for the compounds of this invention was established by evaluating a representative compound of this invention (Compound I) against several strains of fungi. Briefly the following procedure was used to evaluate such activity. A 96 U-bottom microtiter plate was filled (50 μl/well) with RPMI 1640. The compounds to be evaluated were placed in appropriate wells, and serial diluted in successive wells to provide 11 dilutions. The concentrations ranged from 64 through 0.06 μg/ml. An adjusted inoculum of fungi (50 μl) was added to each well and the plates were incubated at 35° C. for 24-48 hours.

[2] = test system: Candida glabrata; conditions: strain ATCC 90030, RPMI 1640, 35° C., 24-48 hours
Procedure: as §1

[3] = test system: Candida krussii; conditions: strain 94-2, RPMI 1640, 35° C., 24-48 hours
Procedure: as §1

[4] = test system: Candida parapsilosis; conditions: RPMI 1640, 35° C., 24-48 hours
Procedure: as §1

[5] = test system: Candida tropicalis; conditions: RPMI 1640, 35° C., 24-48 hours
Procedure: as §1

[6] = test system: Cryptococcus neoformans; conditions: strain ATCC 90112, RPMI 1640, 35° C., 24-48 hours
Procedure: as §1

[7] = test system: Filobasidiella neoformans; conditions: strain ATCC 7472, RPMI 1640, 35° C., 24-48 hours
Procedure: as §1

[8] = test system: Aspergillus flavus
Procedure: as §1, with “Briefly” for “Antifungal activity for the compounds of this invention was established by evaluating a representative compound of this invention (Compound I) against several strains of fungi. Briefly”

[9] = test system: Aspergillus niger; conditions: strain S-430, RPMI 1640, 35° C., 24-48 hours
Procedure: as §1, with “Briefly” for “Antifungal activity for the compounds of this invention was established by evaluating a representative compound of this invention (Compound I) against several strains of fungi. Briefly”

[10] = test system: Candida albicans; conditions: RPMI 1640, 35° C., 24-48 hours
Procedure: as §1, with “Briefly” for “Antifungal activity for the compounds of this invention was established by evaluating a representative compound of this invention (Compound I) against several strains of fungi. Briefly”

[11] = test system: Candida pseudotropicalis; conditions: strain ATCC 28838, RPMI 1640, 35° C., 24-48 hours
Procedure: as §1, with “Briefly” for “Antifungal activity for the compounds of this invention was established by evaluating a representative compound of this invention (Compound I) against several strains of fungi. Briefly”

[12] = test system: Candida rugosa; conditions: strain 94-10, RPMI 1640, 35° C., 24-48 hours
Procedure: as §1, with “Briefly” for “Antifungal activity for the compounds of this invention was established by evaluating a representative compound of this invention (Compound I) against several strains of fungi. Briefly”

[13] = test system: Candida zeylanoided; conditions: strain 94-15, RPMI 1640, 35° C., 24-48 hours
Procedure: as §1, with “Briefly” for “Antifungal activity for the compounds of this invention was established by evaluating a representative compound of this invention (Compound I) against several strains of fungi. Briefly”

[14] = test system: Saccharomyces cerevisiae
Procedure: as §1, with “Briefly” for “Antifungal activity for the compounds of this invention was established by evaluating a representative compound of this invention (Compound I) against several strains of fungi. Briefly”

[15] = test system: Candida lusitaniae; conditions: Clavispora lusitaniae; strain 94-3; RPMI 1640, 35° C., 24-48 hours; read-out: MIC
Procedure: as §1, with “Briefly” for “Antifungal activity for the compounds of this invention was established by evaluating a representative compound of this invention (Compound I) against several strains of fungi. Briefly”

[16] = Aspergillus fumigatus, ATCC26933, read-out: MIC
[17] = Nakaseomyces glabratus, ATCC90030, read-out: MIC
[18] = Lodderomyces parapsilosis, ATCC90018, strain ATCC 90018, read-out: MIC
[19] = Lodderomyces parapsilosis, strain 94-8, read-out: MIC
[20] = Lodderomyces parapsilosis, strain 94-9, read-out: MIC
[21] = Candida tropicalis, strain 94-14, read-out: MIC
[22] = Cryptococcus neoformans, ATCC90112, read-out: MIC
[23] = Cryptococcus neoformans, ATCC7472, read-out: MIC
[24] = Aspergillus flavus, ATCC12963, strain ATCC 12963, RPMI 1640, 35° C., 24-48 hours, read-out: MIC
[25] = Aspergillus niger, read-out: MIC
[26] = Kluyveromyces marxianus, ATCC28838, read-out: MIC
[27] = Candida albicans, ATCC90028, strain ATCC 90028
[28] = Saccharomyces cerevisiae, ATCC2601, strain ATCC 2601, RPMI 1640, 35° C., 24-48 hours, read-out: MIC

Row | Structure (SMILES) | MIC ([5]; strain 94-13) [µg/mL] | MIC [1, 16] [µg/mL] | MIC [2, 17] [µg/mL] | MIC ([3]; Candida, read-out: MIC) [µg/mL] | MIC [4, 18] [µg/mL] | MIC [4, 19] [µg/mL] | MIC [4, 20] [µg/mL] | MIC [5, 21] [µg/mL] | MIC [6, 22] [µg/mL] | MIC [7, 23] [µg/mL] | MIC [8, 24] [µg/mL] | MIC [9, 25] [µg/mL] | MIC [15] [µg/mL] | MIC [11, 26] [µg/mL] | MIC ([12]; Diutina rugosa, read-out: MIC) [µg/mL] | MIC ([13]; Candida, read-out: MIC) [µg/mL] | MIC [10, 27] [µg/mL] | MIC ([10]; Candida albicans, strain 94-1) [µg/mL] | MIC ([10]; Candida albicans, strain 1063) [µg/mL] | MIC ([10]; Candida albicans, strain 1117) [µg/mL] | further results
1 | C[C@@H]1[C@H](O)[C@@H](C)/C=C/C=C/CC/C=C/C=C/C=C/C=C/C(O[C@H]2O[C@H](C)[C@@H](O)[C@H](N)[C@@H]2O)CC2O[C@](O)(CC(O)C(O)CCC(O)CC(O)CC(O)CC(=O)O[C@H]1C)CC(O)C2C(=O)O (stereo partly drawn) [Nystatin] | 1 (≈ 1.08 µM) |  |  |  |  |  |  |  |  |  |  |  |  |  |  |  |  |  |  |  | MIC [1]: 1 µg/mL (≈ 1.08 µM); MIC [2]: 1 µg/mL (≈ 1.08 µM); MIC [3]: 2 µg/mL (≈ 2.16 µM); MIC ([4]; strain 94-8): 1 µg/mL (≈ 1.08 µM); MIC ([4]; strain 94-9): 1 µg/mL (≈ 1.08 µM); MIC ([4]; strain ATCC 90018): 1 µg/mL (≈ 1.08 µM); MIC ([5]; strain 94-14): 2 µg/mL (≈ 2.16 µM); MIC [6]: 0.5 µg/mL (≈ 0.54 µM); MIC [7]: 0.5 µg/mL (≈ 0.54 µM); MIC ([8]; strain ATCC 12963, RPMI 1640, 35° C., 24-48 hours): ≥ 16 µg/mL; MIC [9]: 4 µg/mL (≈ 4.32 µM); MIC ([10]; strain 94-1): 2.0 µg/mL (≈ 2.16 µM); MIC ([10]; strain 1063): 2 µg/mL (≈ 2.16 µM); MIC ([10]; strain 1117): 1 µg/mL (≈ 1.08 µM); MIC ([10]; strain ATCC 90028): 1 µg/mL (≈ 1.08 µM); MIC ([10]; strain C-83): 2 µg/mL (≈ 2.16 µM); MIC [11]: 1 µg/mL (≈ 1.08 µM); MIC [12]: 2 µg/mL (≈ 2.16 µM); MIC [13]: 1 µg/mL (≈ 1.08 µM); MIC ([14]; strain ATCC 2601, RPMI 1640, 35° C., 24-48 hours): 2 µg/mL (≈ 2.16 µM)
2 | CC1C=CC=CC=CC=CC=CC=CC=CC(OC2OC(C)C(O)C(N)C2O)CC2OC(O)(CC(O)CC(O)C(O)CCC(O)CC(O)CC(=O)OC(C)C(C)C1O)CC(O)C2C(=O)O (stereo not drawn) [Amphtericin B] | 0.25 (≈ 0.271 µM) | 0.25 (≈ 0.271 µM) | 0.25 (≈ 0.271 µM) | 0.5 (≈ 0.541 µM) | ≤ 0.12 | 0.25 (≈ 0.271 µM) | 0.5 (≈ 0.541 µM) | 0.25 (≈ 0.271 µM) | ≤ 0.12 | 0.12 (≈ 0.13 µM) | 2 (≈ 2.16 µM) | 0.25 (≈ 0.271 µM) | ≤ 0.12 | 0.25 (≈ 0.271 µM) | 0.25 (≈ 0.271 µM) | 0.25 (≈ 0.271 µM) |  |  |  |  | MIC ([10]; Candida albicans, ATCC90028, strain ATCC 90028, read-out: MIC): 0.25 µg/mL (≈ 0.271 µM); MIC ([10]; Candida albicans, strain 94-1, read-out: MIC): ≤ 0.12 µg/mL; MIC ([10]; Candida albicans, strain 1063, read-out: MIC): 0.25 µg/mL (≈ 0.271 µM); MIC ([10]; Candida albicans, strain 1117, read-out: MIC): 0.25 µg/mL (≈ 0.271 µM); MIC ([10]; Candida albicans, strain C-83, read-out: MIC): 0.25 µg/mL (≈ 0.271 µM); MIC ([14]; Saccharomyces cerevisiae, ATCC2601): ≤ 0.12 µg/mL
3 | Clc1ccc(COC(Cn2ccnc2)c2ccc(Cl)cc2Cl)c(Cl)c1 (stereo not drawn) [Miconazole] | 4 (≈ 9.61 µM) | 1 (≈ 2.4 µM) | ≤ 0.12 | 2 (≈ 4.81 µM) | ≤ 0.12 | 0.25 (≈ 0.601 µM) | 0.5 (≈ 1.2 µM) | 4 (≈ 9.61 µM) | ≤ 0.12 | 0.25 (≈ 0.601 µM) |  | 4 (≈ 9.61 µM) | ≤ 0.12 | ≤ 0.12 | ≤ 0.12 | 0.25 (≈ 0.601 µM) | 0.5 (≈ 1.2 µM) | 8 (≈ 19.2 µM) | 1 (≈ 2.4 µM) | 1 (≈ 2.4 µM) | MIC ([8]; Aspergillus flavus, ATCC12963): 0.5 µg/mL (≈ 1.2 µM); MIC ([10]; Candida albicans, strain C-83): 8 µg/mL (≈ 19.2 µM); MIC [14, 28]: ≤ 0.12 µg/mL
4 | OC(Cn1cncn1)(Cn1cncn1)c1ccc(F)cc1F [Fluconazole] | ≥ 16 | > 16 | 4 (≈ 13.1 µM) | ≥ 16 | 0.5 (≈ 1.63 µM) | 0.5 (≈ 1.63 µM) | 0.5 (≈ 1.63 µM) | ≥ 16 | 8 (≈ 26.1 µM) | 16 (≈ 52.2 µM) | > 16 | > 16 | 1 (≈ 3.27 µM) | ≤ 0.12 | 2 (≈ 6.53 µM) | ≥ 16 | ≥ 16 | ≥ 16 | 4 (≈ 13.1 µM) | 8 (≈ 26.1 µM) | MIC ([10]; Candida albicans, strain C-83): ≥ 16 µg/mL; MIC [14, 28]: 8 µg/mL (≈ 26.1 µM)
